Measured values taken from patent US20140220690A1, “MAMMALIAN GENES INVOLVED IN INFECTION” (priority 2009, published 2014).

What was measured:
[1] = tested on: vaccinia virus
[2] = tested on: herpes simplex virus; type: cell-based

SMILES	% Effectiveness [1] [%]	Effective [1]	Effective [uM] [1] [µM]	inhibition of vaccinia virus infection (in words) [1]	state of the cells [1]	spread of virus over time [1]	reversal of the antiviral effect of anisomycin [2]
C[C@]12CC[C@@H]3c4ccc(O)cc4CC[C@H]3[C@@H]1CC[C@@H]2O [17-B Estradiol, 17-B-Estradiol]	50	✓	100	inhibited infection with vaccinia virus			
COc1ccc(C[C@@H]2NC[C@@H](O)[C@@H]2OC(C)=O)cc1 [ANISOMYCIN, [(2S,3R,4R)-4-hydroxy-2-[(4-methoxyphenyl)methyl]pyrrolidin-3-yl]acetate]					the cells were healthy		
CC(C)(c1ccc(OCC2CO2)cc1)c1ccc(OCC2CO2)cc1 (stereo not drawn) [BADGE]	75	✓	50 to 100	inhibited infection with vaccinia virus			
C[C@]12CC[C@H](O)CC1=CC[C@@H]1[C@@H]2CC[C@]2(C)C(=O)CC[C@@H]12 [DHEA]	99	✓	30	inhibited infection with vaccinia virus		the virus usually starts to spread after day 2	
N#CC(=C(/N)Sc1ccccc1N)/C(C#N)=C(\N)Sc1ccccc1N [U0126]							this effect was reversed
